Source: patent US20240277743A1, “RESTORING PHYSIOLOGY WITH SMALL MOLECULE MIMICS OF MISSING PROTEINS” (The Board of Trustees Of The University Of Illinois, priority 2014, published 2024)

How the values were obtained:
[1] = test system: small molecule-rescued trk1Δtrk2Δ cells versus wild type; assay: Probing sensitivities to known chemical inhibitors assay; format: cell-based, Saccharomyces cerevisiae; conditions: for sensitivity of AmB-rescued trk1Δtrk2Δ cells versus AmB-treated wild type to the inhibitor: AmB rescue, OD600 after 24 hours, FIGS. 3B-3D; for optimum rescue concentration for trk1Δtrk2Δ cells: FIG. 3E legend
Method: Probing sensitivities to known chemical inhibitors assay. Overnight cultures were grown as described in the MIC assay. Prior to harvesting cells, small molecules AmB, nystatin A1 (Riedel-de-Haen), candicidin (TOKU-E), or mepartricin (Santa Cruz Biotechnology) and chemical inhibitors nocodazole (Sigma-Aldrich), ebselen (Cayman Chemical), or bafilomycin BI (Santa Cruz Biotechnology were prepared as stock solutions in DMSO. Saturated cell cultures were centrifuged for 5 minutes at 1000×g. The supernatant was poured off, and cells were resuspended in sterile MilliQ water. Cells were centrifuged again, and supernatant was poured off. The wash step was repeated. The supernatant was poured off, and cells were resuspended in normal potassium YPAD. Cells were diluted with normal potassium YPAD to an OD600 of 0.01. Next, an appropriate volume of AmB, nystatin A1, candicidin, or mepartricin was added to give a final rescuing concentration of 125 nM, 1000 nM, 8 nM, and 8 nM, respectively. A control was prepared by adding the corresponding volume of DMSO to trk1Δtrk2Δ cells. 195 μL of WT+small molecule, 195 μL of trk1Δtrk2Δ+small molecule, and 195 μL of trk1Δtrk2Δ+DMSO were added to a 96 well plate. Next, 5 μL of DMSO or chemical inhibitor was added to each well, with each concentration tested in triplicate for both WT and trk1Δtrk2Δ . The plate was covered and incubated at 30° C. for 24 hours. A BioTek Synergy H1 Hybrid Reader was used to measure the OD600. Utilizing GraphPad PRISM, data were fitted by nonlinear regression, inhibition dose response, variable slope (four parameters) to yield EC50 values with SEM. For statistical analysis, EC50 values from the two treatment groups were compared by unpaired t-test.

[2] = test system: CuFi-1 epithelial monolayers (CFTR-deficient human lung epithelia); assay: Airway surface liquid (ASL) height studies by confocal fluorescence microscopy; format: cell-based
Method: Human cell lines and growth conditions. NuLi and CuFi-1 cells were cultured at the air-liquid interface as previously described, using a 1:1 mixture of DMEM: Ham's F-12 supplemented with 2% v/v Ultroser G (Crescent Chemical). Zabner, J. et al. Am. J. Physiol. Lung Cell. Mol. Physiol. 284, […]-[…] (2003). The membrane supports used were Millicell 0.4 μm PCF inserts (Millipore PIHP01250) for Ussing chamber studies, Corning Costar 0.4 μm Transwell Clear Polyester Membrane inserts (Corning 3470) for rotational mucus transport studies, and Millicell 1.0 μm PCF inserts (Millipore PIRP15R48) for ASL studies. These membranes were allowed to mature at an air-liquid interface for a minimum of 14 days to reach full differentiation. Airway surface liquid (ASL) height studies. ASL height was studied using an established fluorescent dye assay. Worthington, E. N. et al. Methods Mol. Biol. 742, 77-92 (2011); Myerburg. M. M. et al. Am. J. Respir. Cell. Mol. Biol. 42, 676-684 (2010). Mature, differentiated membranes were grown on Millicell […] polyethylene terephthalate hanging cell culture inserts. Wild type (NuLi) lung epithelia were treated with perfluorocarbon (FC-72) vehicle, and CuFi epithelia were treated with vehicle or 500 nM AmB and incubated for 24 hours at 37° ° C. On the day of imaging. 2.5 μL of a 70 kDa Texas Red-dextran conjugate (Molecular Probes) solution in PBS was added to the apical side of the membranes, followed by 100 μL of FC-770 to prevent evaporation. These were placed on 100 μL of PBS on a 10 mm glass bottom Fluorodish for imaging (World Precision Instruments). Membranes were imaged immediately after dye addition and again at 24 hours to examine dye absorption. Three Z-stack images per membrane in biological n=6 were taken on an Zeiss LSM700 confocal microscope at 40× oil immersion. These images were analyzed using ImageJ to determine the area of fluorescence in the left hand 200-micron width of each image. Images were converted to 8-bit, Gaussian Blur was applied, and made binary. The parameters for Analyze Particles were particles from 1-Infinity μm^2 in size and from 0%-100% circularity.

trk1Δtrk2Δ yeast = assay: Functional complementation of a protein with a small molecule assay (rescue broth microdilution); format: cell-based, Saccharomyces cerevisiae; conditions: for restoration of trk1Δtrk2Δ cell growth by ion transporting natural products: FIG. 3A
Text: Broth microdilution minimum inhibitory concentration (MIC) assay. The protocol for the MIC broth microdilution assay was adapted from the Clinical and Laboratory Standards Institute document M27-A2 and performed as previously described. Gray, K. C. et. al. Proc. Natl. Acad. Sci. U.S.A. 109, 2234-2239 (2012); Palacios, D. S. et al. J. Am. Chem. Soc. 129, 13804-13805 (2007).
Functional complementation of a protein with a small molecule assay. The protocol for the rescue broth microdilution assay was conducted as described in the MIC assay above with the following additions: trk1atrk2Δ yeast were grown in high potassium (100 mM) YPAD liquid media overnight and transferred to normal potassium YPAD liquid media containing vehicle or the indicated concentration of AmB.

[3] = test system: AmB ion channel in trk1Δtrk2Δ cells; conditions: FIG. 2E
Method: Tetraethylammonium block assay. The protocol for the tetraethylammonium block assay was conducted as described in the functional complementation assay above with the addition of 125 nM AmB and the indicated concentration of tetraethylammonium to the normal potassium YPAD media and the indicated concentration of tetraethylammonium to the high potassium (100 mM) YPAD media.

trk1Δtrk2Δ cells = assay: 86Rb+ uptake assay; format: cell-based, Saccharomyces cerevisiae; conditions: 3 μM; FIG. 2F
Method: ^86Rb^+ uptake assay. The procedure for 86Rb uptake was adapted from Mulet, J. M. et al. Mol. Cell. Biol. 19, 3328-3337 (1999). Overnight yeast cultures were grown as described above. The supernatant was poured off, and the cells were resuspended in sterile water. This wash was repeated two more times. The cells were then resuspended in 40 mL of the potassium starvation/uptake buffer (50 mM succinic acid, 2% glucose, adjusted to pH 5.5 with Tris). After 3 hour incubation in the potassium starvation buffer, cells were centrifuged and washed twice with sterile water. Cells were resuspended in 1 mL of the potassium starvation/uptake buffer. Cell concentration was determined using an INCYTO®; Neubauer disposable hemocytometer, and wild type S. cerevisiae and trk1Δtrk2Δ cells were diluted to the same cell density. 700 μL of the yeast suspension was added to a 1.5 mL Eppendorf tube. After a 5 minute pre-incubation in the potassium starvation/uptake medium, AmB or C35deOAmB was added (final concentration 3 μM) as a DMSO solution. ^86RbCl (1.1 μCi) was then added to the reaction mixtures. Reaction mixtures were vortexed to ensure a homogeneous solution. […] Moist filters were transferred to plastic vials for measuring radioactivity. Radioactivity was monitored using a Perkin Elmer Wizard automatic gamma counter. […]

yeast = conditions: cited from earlier work

Compound: CO/C1=C\C(C)=C\[C@@H](C)[C@@H](O)[C@@H](C)C/C(C)=C/C=C/[C@H](OC)[C@@H]([C@@H](C)[C@@H](O)[C@H](C)[C@@]2(O)C[C@@H](O)[C@H](C)[C@@H](C(C)C)O2)OC1=O [bafilomycin]
- sensitivity of AmB-rescued trk1Δtrk2Δ cells versus AmB-treated wild type to the inhibitor [1]: exceptionally sensitive

Compound: CCCCNc1cc(C(=O)O)cc(S(N)(=O)=O)c1Oc1ccccc1 [bumetanide]
- effect on AmB-mediated ASL restoration ([2]; basolateral addition, inhibits NKCC, FIG. 5D): blocked

Compound: COC(=O)Nc1nc2ccc(C(=O)c3cccs3)cc2[nH]1 [nocodazole]
- sensitivity of AmB-rescued trk1Δtrk2Δ cells versus AmB-treated wild type to the inhibitor [1]: equally sensitive

Compound: C[C@@H]1[C@H](O)[C@@H](C)/C=C/C=C/CC/C=C/C=C/C=C/C=C/C(O[C@H]2O[C@H](C)[C@@H](O)[C@H](N)[C@@H]2O)CC2O[C@](O)(CC(O)C(O)CCC(O)CC(O)CC(O)CC(=O)O[C@H]1C)CC(O)C2C(=O)O (stereo partly drawn) [nystatin]
- restoration of trk1Δtrk2Δ cell growth by ion transporting natural products (trk1Δtrk2Δ yeast): Vigorous restoration
- optimum rescue concentration for trk1Δtrk2Δ cells [1]: 1 µM

Compound: CC[N+](CC)(CC)CC [tetraethylammonium]
- effect on functional complementation observed with AmB ([3]; 125 nM AmB, normal potassium (10 mM KCl), dose-dependent): inhibited the functional complementation
- general toxicity to trk1Δtrk2Δ cells ([3]; permissive conditions (100 mM KCl)): without causing general toxicity

Compound: C35-deoxy amphotericin B [C35deOAmB]
- 86Rb+ uptake in trk1Δtrk2Δ cells (trk1Δtrk2Δ cells): no uptake
- restoration of growth in trk1Δtrk2Δ cells (trk1Δtrk2Δ yeast; any tested concentration, FIG. 2D): failed to restore growth
- ASL height of CuFi-1 epithelia, compound added apically ([2]; 500 nM AmB, 24 hours, FIGS. 5A, 5B): no increase in ASL height
- fungicidal activity (yeast): potent fungicidal activity

Compound: candicidin
- restoration of trk1Δtrk2Δ cell growth by ion transporting natural products (trk1Δtrk2Δ yeast): Vigorous restoration
- optimum rescue concentration for trk1Δtrk2Δ cells [1]: 0.008 µM

Compound: mepartricin
- restoration of trk1Δtrk2Δ cell growth by ion transporting natural products (trk1Δtrk2Δ yeast): Vigorous restoration
- optimum rescue concentration for trk1Δtrk2Δ cells [1]: 0.008 µM
